Reference: patent publication US10499641B2 (priority 2010, dated 2019)

Key:
Phytophthora infestans = type: in vivo; settings: young tomato plants, sprayed, active ingredient concentration 100 ppm, inoculated 1 day after treatment, evaluation 7 days after inoculation; 100% = no infection
Plasmopara viticola = test: Plasmopara test (grapevine)/protective; type: in vivo; settings: young grapevine plants, sprayed, active ingredient concentration 10 ppm, evaluation 6 days after inoculation; 100% = no infection
Experimental: Plasmopara Test (Grapevine)/Protective
• Solvent: 24.5 parts by weight of acetone • 24.5 parts by weight of dimethylacetamide • Emulsifier: 1 part by weight of alkylaryl polyglycol ether
[To produce an appropriate active ingredient formulation, 1 part by weight of active ingredient is mixed with the specified amounts of solvent and emulsifier, and the concentrate is diluted with water to the desired concentration.
To test for protective efficacy, young plants are sprayed with the active ingredient formulation at the stated application rate. After the spray coating has dried on, the plants are inoculated with an aqueous spore suspension of Plasmopara viticola and then remain in an incubation cabin at approx. 20° C. and 100% relative air humidity for 1 day. Subsequently, the plants are placed in a greenhouse at approx. 21° C. and approx. 90% air humidity for 4 days. The plants are then moistened and placed in an incubation cabin for 1 day.
Evaluation follows 6 days after the inoculation. 0% means an efficacy which corresponds to that of the control, whereas an efficacy of 100% means that no infection is observed.
In this test, the following inventive compounds show, at an active ingredient concentration of 10 ppm, an efficacy of 70% or more: […]

Peronospora brassicae = test: Peronospora test (oilseed rape seeds)/seed treatment; type: in vivo; settings: dose 50 g/dt, 14-day-old plants inoculated, incubated 7 days, infected leaf area, 100% = no disease
Experimental: Peronospora Test (Oilseed Rape Seeds)/Seed Treatment
The test was conducted under greenhouse conditions.
Oilseed rape seeds treated with an inventive active compound or a combination of inventive active compounds dissolved in N-methyl-2-pyrrolidone and diluted with water to the desired dose were sown in 6*6 cm vessels. The vessels contain 4 cm of a 1:1 mixture of steam-treated field soil and sand. The plants grew at 10° C.
14-day-old plants were inoculated with an aqueous spore suspension of Peronospora brassicae. The vessels containing the plants were incubated in a greenhouse at a temperature of 15° C. and a relative air humidity of 100% for 7 days.
The assessment of the test included the evaluation of the infected leaf area per plant. 0% means an efficiency corresponding to that of the control, while an efficiency of 100% means that no disease is observed.

[1] = pH 7.8

SMILES | Eff. % (Phytophthora infestans) | Eff. % (Plasmopara viticola) | Eff. % (Peronospora brassicae) | logp [b] [1] | chromatographic logP (physchem; pH 2.7) | chromatographic logP (physchem; pH 7.8)
O=C(Cn1nc(C(F)F)cc1C(F)F)N1CCC(c2nc(C3=NOC(c4ccccc4C=NO)C3)cs2)CC1 (mixture of isomers) [Example I-4] | 100% | 100% | 92% | – | – | –
Cc1cc(C(F)(F)F)nn1CC(=O)N1CCC(c2nc(C3=NOC(c4ccccc4C=NO)C3)cs2)CC1 (mixture of isomers) [Example I-38] | 100% | 95% | 86% | – | – | –
C[Si](C)(C)C#CCOc1ccccc1C1CC(c2csc(C3CCN(C(=O)Cn4nc(C(F)F)cc4C(F)F)CC3)n2)=NO1 (centres unmarked) [Example I-1, 2-[3,5-Bis(difluoromethyl)-1H-pyrazol-1-yl]-1-(4-{4-[5-(2-{[3-(trimethylsilyl)prop-2-yn-1-yl]oxy}phenyl)-4,5-dihydro-1,2-oxazol-3-yl]-1,3-thiazol-2-yl]piperidin-1-yl}ethanone] | – | – | – | 4.58[b] | – | –
O=C(Cn1nc(C(F)F)cc1C(F)F)N1CCC(c2nc(C3=NOC(c4ccccc4OCC#Cc4cccc5ccccc45)C3)cs2)CC1 (centres unmarked) [Example I-2, 2-[3,5-Bis(difluoromethyl)-1H-pyrazol-1-yl]-1-(4-{4-[5-(2-{[3-(1-naphthyl)prop-2-yn-1-yl]oxy}phenyl)-4,5-dihydro-1,2-oxazol-3-yl]-1,3-thiazol-2-yl}piperidin-1-yl)ethanone] | 100% | – | – | – | 4.81 | 4.68
CC(C)(C)OC(=O)Nc1ccc(C2CC(c3csc(C4CCN(C(=O)Cn5nc(C(F)F)cc5C(F)F)CC4)n3)=NO2)cc1 (centres unmarked) [Example I-17, tert-Butyl (4-{3-[2-(1-{[3,5-bis(difluoromethyl)-1H-pyrazol-1-yl]acetyl}piperidin-4-yl)-1,3-thiazol-4-yl]-4,5-dihydro-1,2-oxazol-5-yl}phenyl)carbamate] | 100% | – | – | 3.46[b] | – | –
CC(=NO)c1ccccc1C1CC(c2csc(C3CCN(C(=O)Cn4nc(C(F)(F)F)cc4C)CC3)n2)=NO1 (centres unmarked) [Example I-40, 1-[4-(4-{5-[2-(N-Hydroxyethanimidoyl)phenyl]-4,5-dihydro-1,2-oxazol-3-yl}-1,3-thiazol-2-yl)piperidin-1-yl]-2-[5-methyl-3-(trifluoromethyl)-1H-pyrazol-1-yl]ethanone] | 100% | 90% | – | – | 2.92 | –
CON=Cc1cccc(F)c1C1CC(c2csc(C3CCN(C(=O)Cn4nc(C(F)F)cc4C(F)F)CC3)n2)=NO1 (centres unmarked) [Example I-60] | 84% | 100% | 95% | – | – | –
Cc1cc(C(F)(F)F)nn1CC(=O)N1CCC(c2nc(C3=NOC(c4ccccc4OS(=O)(=O)C4CC4)C3)cs2)CC1 (centres unmarked) [Example I-61] | 89% | 100% | 90% | – | – | –
Cc1cc(C(F)(F)F)nn1CC(=O)N1CCC(c2nc(C3=NOC(c4ccccc4OS(C)(=O)=O)C3)cs2)CC1 (centres unmarked) [Example I-62] | 89% | 100% | 90% | – | – | –
CCS(=O)(=O)Oc1ccccc1C1CC(c2csc(C3CCN(C(=O)Cn4nc(C(F)F)cc4C(F)F)CC3)n2)=NO1 (centres unmarked) [Example I-65] | 100% | 100% | 90% | – | – | –
CS(=O)(=O)Oc1ccccc1C1CC(c2csc(C3CCN(C(=O)Cn4nc(C(F)F)cc4C(F)F)CC3)n2)=NO1 (centres unmarked) [Example I-124] | 100% | 100% | 100% | – | – | –
Cc1cc(C(F)(F)F)nn1CC(=O)N1CCC(c2nc(C3=NOC(c4ccccc4OS(=O)(=O)C(F)(F)F)C3)cs2)CC1 (centres unmarked) [Example I-125] | 89% | 100% | – | – | – | –
CN(C)C(=S)c1ccccc1C1CC(c2csc(C3CCN(C(=O)Cn4nc(C(F)F)cc4C(F)F)CC3)n2)=NO1 (centres unmarked) [Example I-127] | 97% | 96% | – | – | – | –
COC(=O)COc1ccc(C2CC(c3csc(C4CCN(C(=O)Cn5nc(C(F)F)cc5C(F)F)CC4)n3)=NO2)cc1 (centres unmarked) [Example I-128] | 90% | 93% | – | – | – | –
O=C(Oc1ccccc1C1CC(c2csc(C3CCN(C(=O)Cn4nc(C(F)F)cc4C(F)F)CC3)n2)=NO1)c1cccc(F)c1 (centres unmarked) [Example I-129] | 98% | 98% | – | – | – | –
O=C(Oc1ccccc1C1CC(c2csc(C3CCN(C(=O)Cn4nc(C(F)F)cc4C(F)F)CC3)n2)=NO1)c1ccccc1F (centres unmarked) [Example I-130] | 100% | 100% | – | – | – | –
O=C(Oc1ccccc1C1CC(c2csc(C3CCN(C(=O)Cn4nc(C(F)F)cc4C(F)F)CC3)n2)=NO1)c1ccccc1 (centres unmarked) [Example I-131] | 100% | 94% | – | – | – | –
O=C(Oc1ccccc1C1CC(c2csc(C3CCN(C(=O)Cn4nc(C(F)F)cc4C(F)F)CC3)n2)=NO1)c1ccc(F)cc1 (centres unmarked) [Example I-132] | 100% | 96% | – | – | – | –
C[Si](C)(C)C#Cc1ccccc1C1CC(c2csc(C3CCN(C(=O)Cn4nc(C(F)F)cc4C(F)F)CC3)n2)=NO1 (centres unmarked) [Example I-133] | 100% | 85% | – | – | – | –
C#CCOCc1ccccc1C1CC(c2csc(C3CCN(C(=O)Cn4nc(C(F)F)cc4C(F)F)CC3)n2)=NO1 (centres unmarked) [Example I-138] | 93% | 98% | – | – | – | –
Cc1cc(C(F)(F)F)nn1CC(=O)N1CCC(c2nc(C3=NOC(c4ccccc4OCC#N)C3)cs2)CC1 (centres unmarked) [Example I-140] | 84% | 100% | – | – | – | –
